Results reported in patent publication US20080132505A1 (Glaxo Group Limited, priority 2004, published 2008).

Molecular target: human cannabinoid CB2 receptor (Homo sapiens, UniProt P34972)
Assay: Cannabinoid CB2 receptor agonist activity (yeast reporter assay, FDGlu fluorescence)
Format: cell-based
Settings: for EC50: EC50 value at the cloned human cannabinoid CB2 receptor; for Emax: read-out: efficacy value (Emax relative to HU210) at the cloned human cannabinoid CB2 receptor
Method: Determination of Cannabinoid CB2 Receptor Agonist Activity
The cannabinoid CB2 receptor agonist activity of the compounds of formula (I)-(IV) was determined in accordance with the following experimental method.
Yeast (Saccharomyces cerevisiae) cells expressing the human cannabinoid CB2 receptor were generated by integration of an expression cassette into the ura3 chromosomal locus of yeast strain MMY23. This cassette consisted of DNA sequence encoding the human CB2 receptor flanked by the yeast GPD promoter to the 5′ end of CB2 and a yeast transcriptional terminator sequence to the 3′ end of CB2. MMY23 expresses a yeast/mammalian chimeric G-protein alpha subunit in which the C-terminal 5 amino acids of Gpa1 are replaced with the C-terminal 5 amino acids of human Gαi3 (as described in Brown et al. (2000), Yeast 16:11-22). Cells were grown at 30° C. in liquid Synthetic Complete (SC) yeast media (Guthrie and Fink (1991), Methods in Enzymology, Vol. 194) lacking uracil, tryptophan, adenine and leucine to late logarithmic phase (approximately 6 OD600/ml).
Agonists were prepared as 10 mM stocks in DMSO. […] Agonist solutions in DMSO (1% final assay volume) were transferred into black, clear bottom, microtitre plates from NUNC (96- or 384-well). Cells were suspended at a density of 0.2 OD600/ml in SC media lacking histidine, uracil, tryptophan, adenine and leucine and supplemented with 10 mM 3-aminotriazole, 0.1M sodium phosphate pH 7.0, and […] fluorescein di-β-D-glucopyranoside (FDGlu). This mixture (50 ul per well for 384-well plates, 200 ul per well for 96-well plates) was added to agonist in the assay plates (Multidrop 384, Labsystems). After incubation at 30° C. for 24 hours, fluorescence resulting from degradation of FDGlu to fluorescein due to exoglucanase, an endogenous yeast enzyme produced during agonist-stimulated cell growth, was determined using a Spectrofluor microtitre plate reader (Tecan; excitation wavelength: 485 nm; emission wavelength: 535 nm). Fluorescence was plotted against compound concentration and iteratively curve fitted using a four parameter fit to generate a concentration effect value. Efficacy (Emax) was calculated from the equation
where Max[compound X] and Min[compound X] are the fitted maximum and minimum respectively from the concentration effect curve for compound X, and Max[HU210] and Min[HU210] are the fitted maximum and minimum respectively from the concentration effect curve for (6aR,10aR)-3-(1,1′-Dimethylheptyl)-6a,7,10,10a-tetrahydro-1-hydroxy-6,6-dimethyl-6H-dibenzo[b,d]pyran-9-methanol (HU210; available from Tocris). Equieffective molar ratio (EMR) values were calculated from the equation
Where EC50 [compound X] is the EC50 of compound X and EC50 [HU210] is the EC50 of HU210.

Sequence of human cannabinoid CB2 receptor (P34972 whole entry): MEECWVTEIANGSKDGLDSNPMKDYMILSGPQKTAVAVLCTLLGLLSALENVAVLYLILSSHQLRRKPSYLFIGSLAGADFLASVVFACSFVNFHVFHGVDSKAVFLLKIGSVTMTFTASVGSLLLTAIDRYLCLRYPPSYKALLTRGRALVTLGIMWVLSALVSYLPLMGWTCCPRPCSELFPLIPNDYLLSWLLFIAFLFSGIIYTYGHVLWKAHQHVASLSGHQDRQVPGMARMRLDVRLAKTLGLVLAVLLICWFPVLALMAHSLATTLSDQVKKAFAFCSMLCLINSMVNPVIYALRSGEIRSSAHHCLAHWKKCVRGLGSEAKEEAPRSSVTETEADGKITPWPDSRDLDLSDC

SMILES | EC50 [nM] | Emax [%]
N#Cc1cc(Nc2ncc(C(=O)NCC3CCOCC3)c(C(F)(F)F)n2)ccc1Cl [Example 111, 2-(4-Chloro-3-cyano-phenylamino)-4-tri-fluoromethyl-pyrimidine-5-carboxylic acid (tetrahydropyran-4-ylmethyl)-amide] | 300 to 1000 | > 50
O=C(NC1CCC1)c1cnc(Nc2ccc(Cl)c(Cl)c2)nc1C(F)(F)F [Example 30, 2-(3,4-Dichloro-phenylamino)-4-trifluoromethyl-pyrimidine-5-carboxylic acid cyclobutylamide] | 300 to 1000 | > 50
O=C(NCC1CCOCC1)c1cnc(Nc2cc(Cl)ccc2F)nc1C(F)(F)F [Example 213, 2-(2-Fluoro-5-chloro-phenylamino)-4-trifluoromethyl-pyrimidine-5-carboxylic acid (tetrahydro-pyran-4-ylmethyl)-amide] | 20 to 300 | > 50
O=C(c1cnc(Nc2cc(Cl)ccc2Cl)nc1C(F)(F)F)N1CCCCC1 [Example 85, 1-[2-(2,5-Dichloro-phenylamino)-4-tri-fluoromethyl-pyrimidin-5-yl]-1-piperidin-1-yl-methanone] | 300 to 1000 | > 50
O=C(c1cnc(Nc2cc(Cl)cc(Cl)c2)nc1C(F)(F)F)N1CCOCC1 [Example 13, 1-[2-(3,5-Dichlorophenylamino)-4-trifluoromethylpyrimidin-5-yl]-1-morpholin-4-yl-methanone] | 20 to 300 | > 50
O=C(NCc1ccncc1)c1cnc(Nc2ccc(Cl)c(Cl)c2)nc1C(F)(F)F [Example 283, 2-(3,4-Dichlorophenylamino)-4-trifluoromethylpyrimidine-5-carboxylic acid (pyridin-4-ylmethyl)amide] | 20 to 300 | –
O=C(NCC1CCOCC1)c1cnc(Nc2cc(F)cc(F)c2)nc1C(F)(F)F [Example 214, 2-(3,5-Difluorophenylamino)-4-trifluoromethyl-pyrimidine-5-carboxylic acid (tetrahydro-pyran-4-ylmethyl)-amide] | 20 to 300 | > 50
O=C(NCC1CCOCC1)c1cnc(Nc2ccc(Cl)cc2Br)nc1C(F)(F)F [Example 239, 2-(2-Bromo-4-chloro-phenylamino)-4-trifluoromethyl-pyrimidine-5-carboxylic acid (tetrahydro-pyran-4-ylmethyl)-amide] | 20 to 300 | > 50
O=C(NCC1CCC1)c1cnc(Nc2cc(F)cc(C(F)(F)F)c2)nc1C(F)(F)F [Example 258, 2-(3-Fluoro-5-trifluoromethylphenylamino)-4-trifluoromethyl-pyrimidine-5-carboxylic acid cyclobutylmethyl-amide] | 300 to 1000 | > 50
CN(Cc1ccccc1)C(=O)c1cnc(Nc2cccc(Cl)c2)nc1C(F)(F)F [Example 268, 2-(3-Chlorophenylamino)-4-trifluoromethylpyrimidine-5-carboxylic acid N-benzyl-N-methylamide] | 20 to 300 | –
O=C(NCC1CCC1)c1cnc(Nc2ccc(Cl)cc2Br)nc1C(F)(F)F [Example 230, 2-(2-Bromo-4-chloro-phenylamino)-4-trifluoromethyl-pyrimidine-5-carboxylic acid cyclobutylmethyl-amide] | 20 to 300 | > 50
N#Cc1ccc(Nc2ncc(C(=O)NCC3CCOCC3)c(C(F)(F)F)n2)cc1 [Example 175, 2-(4-Cyanophenylamino)-4-trifluoromethyl-pyrimidine-5-carboxylic acid (tetrahydropyran-4-ylmethyl)-amide] | 20 to 300 | > 50
O=C(NCC1CCCC1)c1cnc(Nc2c(Cl)cccc2Cl)nc1C(F)(F)F [Example 43, 2-(2,6-Dichlorophenylamino)-4-trifluoromethylpyrimidine-5-carboxylic acid cyclopentylmethyl-amide] | 20 to 300 | > 50
CC(C)c1cc(Nc2cccc(OC(F)(F)F)c2)ncc1C(=O)NCC1CCC1 [Example 682, N-Cyclobutylmethyl-4 isopropyl-6-(3-trifluoromethoxy-phenylamino)-nicotinamide] | – | > 50
N#Cc1ccc(Nc2ncc(C(=O)NCC3CCC3)c(C(F)(F)F)n2)c(Cl)c1 [Example 103, 2-(2-Chloro-4-cyanophenylamino)-4-trifluoromethyl-pyrimidine-5-carboxylic acid cyclobutylmethyl-amide] | 300 to 1000 | > 50
O=C(NCC1CCCCC1)c1cnc(Nc2c(Cl)cccc2Cl)nc1C(F)(F)F [Example 21, 2-(2,6-Dichlorophenylamino)-4-trifluoromethylpyrimidine-5-carboxylic acid cyclohexylmethyl-amide] | 20 to 300 | > 50
CSc1c(Nc2ncc(C(=O)NCC3CCOCC3)c(C(F)(F)F)n2)cccc1C(F)(F)F [Example 182, 2-(2-Methylthio-3-(trifluoromethyl)phenylamino)-4-trifluoromethyl-pyrimidine-5-carboxylic acid (tetrahydropyran-4-ylmethyl)-amide] | 20 to 300 | > 50
O=C(NCC1CCCCC1)c1cnc(Nc2cccc(Br)c2)nc1C(F)(F)F [Example 20, 2-(3-Bromophenylamino)-4-trifluoromethylpyrimidine-5-carboxylic acid cyclohexylmethyl-amide] | 20 to 300 | > 50
O=C(c1cnc(Nc2cccc(F)c2)nc1C(F)(F)F)N1CCCCC1 [Example 78, 1-[2-(3-fluorophenylamino)-4-trifluoromethyl-pyrimidin-5-yl]-1-piperidin-1-yl-methanone] | 300 to 1000 | > 50
O=C(NCC1CC1)c1cnc(Nc2cccc(Cl)c2)nc1C(F)(F)F [Example 84, 2-(3-Chloro-phenylamino)-4-trifluoromethyl-pyrimidine-5-carboxylic acid cyclopropylmethyl-amide] | 300 to 1000 | > 50
CN(CC1CCCCC1)C(=O)c1cnc(Nc2cccc(Cl)c2)nc1C(F)(F)F [Example 189, 2-(3-Chlorophenylamino)-4-trifluoromethyl-pyrimidine-5-carboxylic acid cyclohexylmethyl-methyl-amide] | 20 to 300 | > 50
CN(CC1CCCC1)C(=O)c1cnc(Nc2cccc(Cl)c2)nc1C(F)(F)F [Example 190, 2-(3-Chlorophenylamino)-4-trifluoromethyl-pyrimidine-5-carboxylic acid cyclopentylmethyl-methyl-amide] | 20 to 300 | > 50
O=C(NC1CC1)c1cnc(Nc2cccc(Cl)c2)nc1C(F)(F)F [Example 209, 2-(3-Chlorophenylamino)-4-trifluoromethyl-pyrimidine-5-carboxylic acid cyclopropylamide] | 20 to 300 | > 50
N#Cc1cccc(Nc2ncc(C(=O)NCC3CCCCC3)c(C(F)(F)F)n2)c1 [Example 171, 2-(3-Cyanophenylamino)-4-trifluoromethyl-pyrimidine-5-carboxylic acid cyclohexylmethyl-amide] | 20 to 300 | > 50
O=C(NC1CCCC1)c1cnc(Nc2ccc(Cl)c(Cl)c2)nc1C(F)(F)F [Example 74, 3,4-Dichlorophenylamino-4-trifluoromethyl-pyrimidine-5-carboxylic acid cyclopentylamide] | 300 to 1000 | > 50
N#Cc1cc(C#N)cc(Nc2ncc(C(=O)NCC3CCCCC3)c(C(F)(F)F)n2)c1 [Example 89, 2-(3,5-Dicyano-phenylamino)-4-trifluoromethyl-pyrimidine-5-carboxylic acid cyclohexylmethyl-amide] | 300 to 1000 | > 50
O=C(NCC1CCCCC1)c1cnc(Nc2cccc(C(F)(F)F)c2F)nc1C(F)(F)F [Example 243, 2-(2-Fluoro-3-trifluoromethyl-phenylamino)-4-trifluoromethyl-pyrimidine-5-carboxylic acid cyclohexylmethyl-amide] | 20 to 300 | > 50
O=C(NCC1CCCCC1)c1cnc(Nc2cc(Cl)cc(Cl)c2)nc1C(F)(F)F [Example 18, 2-(3,5-Dichlorophenylamino)-4-trifluoromethylprimidine-5-carboxylic acid cyclohexylmethyl-amide] | 20 to 300 | > 50
